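How tested: cells in 96-well plates exposed to compound for 48 hours at five concentrations. TGI: total growth inhibition.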
Columns and labels:
Experiment in all cases: DTP human tumour cell line panel, 48 h
OVCAR-3 ovarian = tested on: OVCAR-3 ovarian
OVCAR-4 ovarian = tested on: OVCAR-4 ovarian
PC-3 prostate = tested on: PC-3 prostate
BT-549 breast = tested on: BT-549 breast
786-0 renal = tested on: 786-0 renal
SR leukemia = tested on: SR leukemia
RXF 393 renal = tested on: RXF 393 renal
EKVX NSCLC = tested on: EKVX NSCLC
HCC-2998 colon = tested on: HCC-2998 colon
SK-OV-3 ovarian = tested on: SK-OV-3 ovarian
HOP-62 NSCLC = tested on: HOP-62 NSCLC
MDA-MB-435 = tested on: MDA-MB-435
UO-31 renal = tested on: UO-31 renal
NCI-H460 lung = tested on: NCI-H460 lung
U251 CNS = tested on: U251 CNS
MOLT-4 leukemia = tested on: MOLT-4 leukemia
COLO 205 colon = tested on: COLO 205 colon
SNB-19 CNS = tested on: SNB-19 CNS
SK-MEL-5 melanoma = tested on: SK-MEL-5 melanoma
UACC-257 melanoma = tested on: UACC-257 melanoma
IGROV1 ovarian = tested on: IGROV1 ovarian
HS 578T breast = tested on: HS 578T breast
SF-295 CNS = tested on: SF-295 CNS
OVCAR-8 ovarian = tested on: OVCAR-8 ovarian
NCI-H522 lung = tested on: NCI-H522 lung
SN12C renal = tested on: SN12C renal
M14 melanoma = tested on: M14 melanoma
NCI-H23 lung = tested on: NCI-H23 lung
MDA-N = tested on: MDA-N
CAKI-1 renal = tested on: CAKI-1 renal
MCF7 breast = tested on: MCF7 breast
UACC-62 melanoma = tested on: UACC-62 melanoma
SK-MEL-2 melanoma = tested on: SK-MEL-2 melanoma
LOX IMVI melanoma = tested on: LOX IMVI melanoma
KM12 colon = tested on: KM12 colon
K-562 leukemia = tested on: K-562 leukemia
SW-620 colon = tested on: SW-620 colon
NCI/ADR-RES ovarian = tested on: NCI/ADR-RES ovarian
CCRF-CEM leukemia = tested on: CCRF-CEM leukemia
HCT-116 colon = tested on: HCT-116 colon
ACHN renal = tested on: ACHN renal
SF-268 CNS = tested on: SF-268 CNS
SF-539 CNS = tested on: SF-539 CNS
SK-MEL-28 melanoma = tested on: SK-MEL-28 melanoma
A498 renal = tested on: A498 renal
RPMI-8226 leukemia = tested on: RPMI-8226 leukemia
DU-145 prostate = tested on: DU-145 prostate
HOP-92 NSCLC = tested on: HOP-92 NSCLC
T-47D breast = tested on: T-47D breast
TK-10 renal = tested on: TK-10 renal
NCI-H226 lung = tested on: NCI-H226 lung
MALME-3M melanoma = tested on: MALME-3M melanoma
A549 NSCLC = tested on: A549 NSCLC
OVCAR-5 ovarian = tested on: OVCAR-5 ovarian
SNB-75 CNS = tested on: SNB-75 CNS
HCT-15 colon = tested on: HCT-15 colon
HT29 colon = tested on: HT29 colon
HL-60(TB) leukemia = tested on: HL-60(TB) leukemia
MDA-MB-231 breast = tested on: MDA-MB-231 breast

Measured: TGI

CCN(CC)CCC1(C(=O)OC)SCCc2ccc(C)cc21 (stereo unspecified)
> 100 µM: OVCAR-3 ovarian | OVCAR-4 ovarian | PC-3 prostate | BT-549 breast | 786-0 renal | SR leukemia | RXF 393 renal | EKVX NSCLC | HCC-2998 colon | SK-OV-3 ovarian | HOP-62 NSCLC | MDA-MB-435 | UO-31 renal | NCI-H460 lung | U251 CNS | MOLT-4 leukemia | COLO 205 colon | SNB-19 CNS | SK-MEL-5 melanoma | UACC-257 melanoma | IGROV1 ovarian | HS 578T breast | SF-295 CNS | OVCAR-8 ovarian | NCI-H522 lung | SN12C renal | M14 melanoma | NCI-H23 lung | MDA-N | CAKI-1 renal | MCF7 breast | UACC-62 melanoma | SK-MEL-2 melanoma | LOX IMVI melanoma | KM12 colon | K-562 leukemia | SW-620 colon | NCI/ADR-RES ovarian | CCRF-CEM leukemia | HCT-116 colon | ACHN renal | SF-268 CNS | SF-539 CNS | SK-MEL-28 melanoma | A498 renal | RPMI-8226 leukemia | DU-145 prostate | HOP-92 NSCLC | T-47D breast | TK-10 renal | NCI-H226 lung | MALME-3M melanoma | A549 NSCLC | OVCAR-5 ovarian | SNB-75 CNS | HCT-15 colon

CC(NC1=NCCO1)c1ccco1 (stereo unspecified)
90.2 µM: KM12 colon
> 100 µM: OVCAR-3 ovarian | OVCAR-4 ovarian | PC-3 prostate | 786-0 renal | SR leukemia | RXF 393 renal | EKVX NSCLC | HCC-2998 colon | SK-OV-3 ovarian | HOP-62 NSCLC | MDA-MB-435 | UO-31 renal | NCI-H460 lung | U251 CNS | MOLT-4 leukemia | HT29 colon | COLO 205 colon | SNB-19 CNS | SK-MEL-5 melanoma | UACC-257 melanoma | IGROV1 ovarian | HS 578T breast | SF-295 CNS | OVCAR-8 ovarian | NCI-H522 lung | SN12C renal | M14 melanoma | NCI-H23 lung | MDA-N | CAKI-1 renal | MCF7 breast | UACC-62 melanoma | SK-MEL-2 melanoma | LOX IMVI melanoma | HL-60(TB) leukemia | K-562 leukemia | SW-620 colon | NCI/ADR-RES ovarian | CCRF-CEM leukemia | HCT-116 colon | ACHN renal | SF-268 CNS | SF-539 CNS | SK-MEL-28 melanoma | A498 renal | RPMI-8226 leukemia | DU-145 prostate | HOP-92 NSCLC | T-47D breast | TK-10 renal | NCI-H226 lung | MALME-3M melanoma | MDA-MB-231 breast | A549 NSCLC | OVCAR-5 ovarian | HCT-15 colon

Cc1cnc2cc(Cl)ccc2c1SCC(=O)O
> 100 µM: OVCAR-3 ovarian | OVCAR-4 ovarian | PC-3 prostate | BT-549 breast | 786-0 renal | SR leukemia | RXF 393 renal | EKVX NSCLC | HOP-62 NSCLC | MDA-MB-435 | UO-31 renal | NCI-H460 lung | U251 CNS | MOLT-4 leukemia | HT29 colon | SNB-19 CNS | SK-MEL-5 melanoma | UACC-257 melanoma | IGROV1 ovarian | HS 578T breast | SF-295 CNS | OVCAR-8 ovarian | NCI-H522 lung | SN12C renal | M14 melanoma | NCI-H23 lung | MDA-N | CAKI-1 renal | UACC-62 melanoma | SK-MEL-2 melanoma | LOX IMVI melanoma | HL-60(TB) leukemia | KM12 colon | K-562 leukemia | SW-620 colon | NCI/ADR-RES ovarian | CCRF-CEM leukemia | HCT-116 colon | ACHN renal | SF-268 CNS | SK-MEL-28 melanoma | A498 renal | RPMI-8226 leukemia | DU-145 prostate | HOP-92 NSCLC | T-47D breast | TK-10 renal | NCI-H226 lung | MALME-3M melanoma | MDA-MB-231 breast | A549 NSCLC | OVCAR-5 ovarian | HCT-15 colon

— PubChem BioAssay (NCI)
